What is called Ki is the dissociation constant of the complex between target and ligand, obtained from inhibition or displacement. Low readings indicate higher affinity, high ones lower affinity. What is called Kd is the free concentration of one partner at which half of the binding sites on the other are occupied at equilibrium, for simple one-to-one binding.

For assay [1], the target named is T1, FN3KRP (IPI00099986) (Homo sapiens, UniProt Q9HA64).
T1 construct: endogenous in cells; host or cells: HeLa S3
T1 sequence (Q9HA64 1-309): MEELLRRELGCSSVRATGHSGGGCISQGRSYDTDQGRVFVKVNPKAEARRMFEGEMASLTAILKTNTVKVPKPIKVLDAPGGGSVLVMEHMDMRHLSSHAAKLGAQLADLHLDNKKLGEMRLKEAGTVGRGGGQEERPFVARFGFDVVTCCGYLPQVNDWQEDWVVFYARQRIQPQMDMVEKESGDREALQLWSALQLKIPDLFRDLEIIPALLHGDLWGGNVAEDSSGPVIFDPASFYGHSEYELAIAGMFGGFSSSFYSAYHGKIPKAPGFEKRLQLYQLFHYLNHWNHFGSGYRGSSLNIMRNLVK
As to the kind of experiment: binding to VI16742 beads (HeLa lysate, SILAC MS). A digest of the protocol:
(§1)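 Binders are those proteins retained specifically by an immobilised pyrido[2,3-d]pyrimidine compound, a kinase inhibitor of wide selectivity.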

Assay [2] has as its target T2, MAP2K4 (IPI00789335) (Homo sapiens, UniProt P45985).
T2 construct: endogenous in cells; host or cells: HeLa S3
T2 sequence (P45985 1-399): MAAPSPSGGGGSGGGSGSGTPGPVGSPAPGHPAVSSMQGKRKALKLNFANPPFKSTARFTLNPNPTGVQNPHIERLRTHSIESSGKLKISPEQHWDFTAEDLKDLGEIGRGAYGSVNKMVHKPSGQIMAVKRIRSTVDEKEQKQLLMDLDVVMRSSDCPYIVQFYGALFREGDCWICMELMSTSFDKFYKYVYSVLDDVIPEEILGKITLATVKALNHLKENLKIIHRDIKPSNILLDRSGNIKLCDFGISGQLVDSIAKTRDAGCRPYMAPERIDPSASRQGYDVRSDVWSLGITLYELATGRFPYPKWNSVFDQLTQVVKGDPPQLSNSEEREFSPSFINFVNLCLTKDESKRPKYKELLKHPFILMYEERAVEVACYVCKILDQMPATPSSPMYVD
Description: binding to VI16742 beads (HeLa lysate, SILAC MS). The method in brief: as §1

In assay [3] the target is T3, PKN2 (IPI00002804) (Homo sapiens, UniProt Q16513).
T3 construct: endogenous in cells; host or cells: HeLa S3
T3 sequence (Q16513 whole entry): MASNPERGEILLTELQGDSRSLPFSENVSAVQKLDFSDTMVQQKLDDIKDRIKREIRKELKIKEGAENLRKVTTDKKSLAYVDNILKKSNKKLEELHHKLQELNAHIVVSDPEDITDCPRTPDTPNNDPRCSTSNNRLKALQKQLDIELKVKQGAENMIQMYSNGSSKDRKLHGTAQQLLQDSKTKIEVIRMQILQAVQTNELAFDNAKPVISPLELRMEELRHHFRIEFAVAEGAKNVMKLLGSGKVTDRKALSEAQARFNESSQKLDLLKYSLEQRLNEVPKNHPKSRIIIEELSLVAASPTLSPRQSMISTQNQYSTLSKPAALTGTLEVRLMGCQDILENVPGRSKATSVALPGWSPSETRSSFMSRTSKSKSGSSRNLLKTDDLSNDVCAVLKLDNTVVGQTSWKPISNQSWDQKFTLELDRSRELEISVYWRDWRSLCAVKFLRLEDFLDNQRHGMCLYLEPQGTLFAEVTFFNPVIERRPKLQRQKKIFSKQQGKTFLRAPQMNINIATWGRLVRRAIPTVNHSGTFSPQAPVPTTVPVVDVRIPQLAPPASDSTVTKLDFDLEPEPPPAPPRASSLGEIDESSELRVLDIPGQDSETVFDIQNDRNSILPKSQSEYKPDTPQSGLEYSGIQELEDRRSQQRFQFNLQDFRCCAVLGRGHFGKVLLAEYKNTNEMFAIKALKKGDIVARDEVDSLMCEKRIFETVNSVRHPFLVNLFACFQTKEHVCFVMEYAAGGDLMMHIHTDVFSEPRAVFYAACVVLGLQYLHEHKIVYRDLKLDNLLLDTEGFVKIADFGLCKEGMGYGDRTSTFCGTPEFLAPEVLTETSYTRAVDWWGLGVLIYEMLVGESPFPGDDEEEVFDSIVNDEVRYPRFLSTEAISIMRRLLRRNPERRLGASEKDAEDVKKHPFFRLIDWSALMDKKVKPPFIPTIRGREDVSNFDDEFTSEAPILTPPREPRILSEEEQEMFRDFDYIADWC
As to the kind of experiment: binding to VI16742 beads (HeLa lysate, SILAC MS). A digest of the protocol: as §1

The target in assay [4] is T4, GLO1 (IPI00220766) (Homo sapiens, UniProt Q04760).
T4 construct: endogenous in cells; host or cells: HeLa S3
T4 sequence (Q04760 2-184 limits assumed): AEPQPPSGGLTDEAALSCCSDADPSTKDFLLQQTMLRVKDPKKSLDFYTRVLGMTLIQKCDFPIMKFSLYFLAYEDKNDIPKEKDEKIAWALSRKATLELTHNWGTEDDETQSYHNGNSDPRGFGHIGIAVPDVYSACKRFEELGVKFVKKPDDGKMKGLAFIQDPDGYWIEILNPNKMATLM
As to the kind of experiment: binding to VI16742 beads (HeLa lysate, SILAC MS). A digest of the protocol: as §1

In assay [5] the target is GSK3B (Homo sapiens, UniProt P49841). As to the kind of experiment: binding to immobilized V16742 (IVA1/IVA2, HeLa lysate, MS).
Sequence of GSK3B (P49841 whole entry): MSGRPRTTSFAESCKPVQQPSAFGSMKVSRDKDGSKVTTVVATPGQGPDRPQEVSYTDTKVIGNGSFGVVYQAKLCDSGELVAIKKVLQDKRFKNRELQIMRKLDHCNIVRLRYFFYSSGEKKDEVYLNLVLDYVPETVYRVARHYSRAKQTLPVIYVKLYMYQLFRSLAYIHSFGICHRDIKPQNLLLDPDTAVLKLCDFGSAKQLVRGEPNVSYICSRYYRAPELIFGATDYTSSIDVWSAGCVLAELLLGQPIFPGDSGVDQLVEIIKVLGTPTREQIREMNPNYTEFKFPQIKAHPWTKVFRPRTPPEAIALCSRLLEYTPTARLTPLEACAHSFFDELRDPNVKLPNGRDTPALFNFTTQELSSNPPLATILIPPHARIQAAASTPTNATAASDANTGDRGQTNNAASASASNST
[6] abbreviates: control beads vs first incubation.

Molecules are shown by their SMILES. Read-outs that look alike come from different tables or passages of the source.

With `CC(C)n1c(=O)ccc2cnc(Nc3ccc(OCCN)cc3)nc21` [V16742], the “r (3 MG/1 MG LYSATE)” value in assay [1] (3 mg vs 1 mg lysate) came to 2.02; in assay [3] (3 mg vs 1 mg lysate), 2.87. The “r (5 h/2.5 h INC. TIME)” value in assay [1] (5 h vs 2.5 h incubation time) was 0.95; in assay [3] (5 h vs 2.5 h incubation time), 1.35; in assay [4] (5 h vs 2.5 h incubation time), 1.39. In addition, the “rAVERAGE (CTRL/1 INC)” value in assay [1] (setting [6]) came out at 0.07; in assay [2] (setting [6]), 0.06; in assay [3] (setting [6]), 0.03; in assay [4] (setting [6]) it was 0.07. Also, the Ki in assay [1] (immobilized VI16742) came to 117 µM; in assay [2] (immobilized VI16742), 127 µM; in assay [3] (immobilized VI16742), 115 µM; in assay [4] (immobilized VI16742), 133 µM. The “rAVERAGE (2 INC/1 INC)” value is on record as 0.69 in assay [1] (second vs first incubation), 0.71 in assay [2] (second vs first incubation), 0.69 in assay [3] (second vs first incubation) and 0.72 in assay [4] (second vs first incubation).

Turning to `CC(C)n1c(=O)ccc2cnc(Nc3ccc(OCCN)cc3)nc21` [compound 16742], the “Percent bound at 1.87 μM 16742 conc” value in assay [5] (EXPERIMENT 1) turned out to be 12.33%; in assay [5] (EXPERIMENT 2), 8.04%. In addition, the figures for the “Percent bound at 8.74 μM 16742 conc” value in assay [5] (EXPERIMENT 1) and in assay [5] (EXPERIMENT 2) were 51.81% and 41.97%, respectively. For the same compound, the “Percent bound at 52 μM 16742 conc” value in assay [5] (EXPERIMENT 1) came out at 91.30%; in assay [5] (EXPERIMENT 2), 88.20%. Further, the Kd in assay [5] (EXPERIMENT 1, read-out: Kd) is 8.44 µM; in assay [5] (EXPERIMENT 2, read-out: Kd) it was 11.6 µM; in assay [5] (read-out: Kd Avg), 10 µM.

(Values after patent publication US8959984B2, “Proteome-wide quantification of small molecule binding to cellular target proteins” (priority 2007, dated 2015).)
